According to patent publication US12606568B2, “SMARCA degraders and uses thereof” (Kymera Therapeutics, Inc., priority 2020, dated 2026):

Molecular target: SMARCA2 (Homo sapiens, UniProt P51531)
Experiment: SMARCA2 Western blot MV4-11 degradation
Type: cell-based
Parameters: SMARCA2 and SMARCA4 protein degradation in MV4-11 cells; endogenous in cells; host or cells: MV4-11
Conditions: for Dmax: MV4-11, MV4-11 cells, read-out: SMARCA2 MSD MV411 degradation 24 h: average Dmax %; for Dmax / DC50: 24 h; for DC50 / SMARCA2 MSD MV411 degradation 24 h: average Dmax %: MV4-11 cells; for DC50: read-out: SMARCA2 MSD MV411 degradation 24 h: Mean external-Abs DC50
Description: Example 54. SMARCA2 and SMARCA 4 Western Blot MV4-11 Degradation
Cells were seeded into 6-well plates (MV4-11: 4×10^6 cells/well/1 ml) and 1 ml of 2× compound solution was added into the well to make the final concentration and the plates were mixed well and incubated for 24 hours (No cytotoxicity was observed). The cell were collected with media and spun at 3000 rpm for 5 minutes. The supernatant was aspirated and the well and the cells were washed with cold PBS once and combined for centrifugation again; the supernatant aspirated again. 200 ul pre-chilled RIPA lysis buffer (Boston BioProducts BP-115D) with protease/phosphatase inhibitor (Roche 05892791001/Roche 04906837001) was directly added into the tube to lyze the cells for 20 minutes on ice. The cell lysate were collected into EP tubes and spun at 13000 rpm for 20 minutes and 72 ul supernatant was transferred to a fresh EP tube containing 18 ul of 5× loading buffer (Beyotime Bio P0015) to make the loading samples. The samples were heated to 100° C. for 10 minutes and cooled to RT and microcentrifuged. 20 ul of samples were loaded onto SDS-PAGE gel (Novex, WG1402BOX) and the gel was run at 80 V for 20 minutes and 120 V for 1.5 hours. The samples were electrotransfer to a NC membrane using wet-transfer method with 250 mA for 2.5 hours. The membrane was blocked with LICOR blocking buffer (LI-COR, 927-50000) for 1 hour. The membrane was washed three times with TBST (CST #9997S), 5 minutes each. Incubation was performed with primary antibody prepared in blocking buffer with 0.1% Tween-20 (Solarbio, P8220) at 4° C. overnight (Anti-SMARCA2/BRM antibody (ab15597) 1:500; Anti-BRG1 antibody [EPR3912] (ab108318) 1:1000; Rabbit anti-Baf180 antibody [EPR15860] (Abcam, ab196022) 1:1000; mouse anti-beta-Actin (8H10D10) (CST #3700) 1:10000). The membrane was washed three times with TBST, 5 minutes each. Incubation with secondary antibody was performed for 1 hour at RT (anti-rabbit IgG (Licor, 926-32211) 1:5000; anti-mouse IgG (LI-COR, 926-68070) 1:5000). The membrane was washed three times with TBST, 5 minutes each and lastly the LiCOR was read.
The letter codes for SMARCA degradation potency (DC50) include: A (<100 nM), B (100-500 nM), C (501-1000 nM), and D (>1000 nM). The letter codes for the percentage of SMARCA degradation after 24 hours (Dmax %) include: A (>90% degradation), B (>70-90% degradation), C (50-70% degradation), and D (<50% degradation).

SMARCA2, sequence (P51531 whole entry): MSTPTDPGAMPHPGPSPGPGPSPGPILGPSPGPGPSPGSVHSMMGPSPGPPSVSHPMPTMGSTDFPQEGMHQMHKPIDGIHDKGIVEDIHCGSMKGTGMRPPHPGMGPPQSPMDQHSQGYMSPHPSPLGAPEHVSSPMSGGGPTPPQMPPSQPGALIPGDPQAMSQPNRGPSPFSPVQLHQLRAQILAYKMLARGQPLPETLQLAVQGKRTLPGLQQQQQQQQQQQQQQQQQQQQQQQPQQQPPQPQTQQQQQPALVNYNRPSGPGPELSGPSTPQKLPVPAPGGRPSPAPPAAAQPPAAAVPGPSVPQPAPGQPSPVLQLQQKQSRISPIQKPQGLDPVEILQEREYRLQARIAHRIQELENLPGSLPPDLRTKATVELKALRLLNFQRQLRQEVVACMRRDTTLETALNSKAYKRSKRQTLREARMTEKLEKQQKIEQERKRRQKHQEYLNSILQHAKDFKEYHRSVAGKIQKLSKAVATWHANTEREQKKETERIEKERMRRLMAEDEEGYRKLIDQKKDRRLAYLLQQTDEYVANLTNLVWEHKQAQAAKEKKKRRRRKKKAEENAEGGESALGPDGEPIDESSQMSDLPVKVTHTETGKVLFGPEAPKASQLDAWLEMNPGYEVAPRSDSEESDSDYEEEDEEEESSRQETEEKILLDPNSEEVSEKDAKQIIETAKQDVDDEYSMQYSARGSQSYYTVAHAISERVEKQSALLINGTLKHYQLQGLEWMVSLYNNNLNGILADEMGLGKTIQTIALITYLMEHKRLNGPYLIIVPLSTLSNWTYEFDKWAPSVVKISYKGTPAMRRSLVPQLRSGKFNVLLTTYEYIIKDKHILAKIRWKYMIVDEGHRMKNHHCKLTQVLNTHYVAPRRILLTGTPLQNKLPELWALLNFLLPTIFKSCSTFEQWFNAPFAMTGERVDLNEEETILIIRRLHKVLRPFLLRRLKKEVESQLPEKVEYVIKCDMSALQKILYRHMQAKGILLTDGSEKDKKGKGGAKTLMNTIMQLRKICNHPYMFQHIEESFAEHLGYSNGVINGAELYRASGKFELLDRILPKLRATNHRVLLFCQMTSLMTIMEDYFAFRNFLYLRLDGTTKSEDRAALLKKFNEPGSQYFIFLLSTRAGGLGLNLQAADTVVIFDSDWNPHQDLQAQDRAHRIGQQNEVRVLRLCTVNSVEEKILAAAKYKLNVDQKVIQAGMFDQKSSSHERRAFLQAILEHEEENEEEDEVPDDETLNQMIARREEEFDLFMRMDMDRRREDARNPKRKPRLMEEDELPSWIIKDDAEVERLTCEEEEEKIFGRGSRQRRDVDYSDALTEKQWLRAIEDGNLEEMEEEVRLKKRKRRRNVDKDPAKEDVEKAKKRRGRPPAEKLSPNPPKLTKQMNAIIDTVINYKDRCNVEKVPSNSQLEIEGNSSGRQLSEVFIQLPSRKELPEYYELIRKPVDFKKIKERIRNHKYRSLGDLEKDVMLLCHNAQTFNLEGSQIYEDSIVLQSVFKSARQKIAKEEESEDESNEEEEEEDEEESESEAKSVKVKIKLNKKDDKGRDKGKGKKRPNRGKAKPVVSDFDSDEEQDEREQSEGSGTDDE

| SMILES | Dmax | DC50 | SMARCA2 MSD MV411 degradation 24 h: average Dmax % |
| --- | --- | --- | --- |
| Cc1ncsc1-c1ccc(CNC(=O)[C@@H]2C[C@@H](O)CN2C(=O)[C@@H](c2cc(N3CCC(CCN4CCC(c5cnc(N6C7CCC6CN(c6cc(-c8ccccc8O)nnc6N)C7)nc5)CC4)CC3)no2)C(C)C)cc1 [I-62, (2S,4R)-1-((2R)-2-(3-(4-(2-(4-(2-(3-(3-amino-6-(2-hydroxyphenyl)pyridazin-4-yl)-3,8-diazabicyclo[3.2.1]octan-8-yl)pyrimidin-5-yl)piperidin-1-yl)ethyl)piperidin-1-yl)isoxazol-5-yl)-3-methylbutanoyl)-4-hydroxy-N-(4-(4-methylthiazol-5-yl)benzyl)pyrrolidine-2-carboxamide] | 50 to 70% | 100 to 500 nM |  |
| Cc1ncsc1-c1ccc(CNC(=O)[C@@H]2C[C@@H](O)CN2C(=O)[C@@H](c2cc(N3CCC(N4CCC(c5cnc(N6C7CCC6CN(c6cc(-c8ccccc8O)nnc6N)C7)nc5)CC4)CC3)no2)C(C)C)cc1 [I-49, (2S,4R)-1-(2-(3-(4-(2-(3-(3-amino-6-(2-hydroxyphenyl)pyridazin-4-yl)-3,8-diazabicyclo[3.2.1]octan-8-yl)pyrimidin-5-yl)-[1,4′-bipiperidin]-1′-yl)isoxazol-5-yl)-3-methylbutanoyl)-4-hydroxy-N-(4-(4-methylthiazol-5-yl)benzyl)pyrrolidine-2-carboxamide] | > 90% | < 100 nM |  |
| Cc1cc(C(C(=O)N2C[C@H](O)C[C@H]2C(=O)NCc2ccc(-c3scnc3C)cc2)C(C)CCN2CCC(c3cnc(N4C5CCC4CN(c4cc(-c6ccccc6O)nnc4N)C5)nc3)CC2)on1 (single isomer, unassigned) [I-46] |  | < 100 nM | B (B (>70-90% degradation)) |
| Cc1cc(C(C(=O)N2C[C@H](O)C[C@H]2C(=O)NCc2ccc(-c3scnc3C)cc2)C(C)CCN2CCC(c3cnc(N4C5CCC4CN(c4cc(-c6ccccc6O)nnc4N)C5)nc3)CC2)on1 (stereo partly drawn) [I-44, (2S,4R)-1-(5-(4-(2-(3-(3-amino-6-(2-hydroxyphenyl)pyridazin-4-yl)-3,8-diazabicyclo[3.2.1]octan-8-yl)pyrimidin-5-yl)piperidin-1-yl)-3-methyl-2-(3-methylisoxazol-5-yl)pentanoyl)-4-hydroxy-N-(4-(4-methylthiazol-5-yl)benzyl)pyrrolidine-2-carboxamide] | 70 to 90% | < 100 nM |  |
| Cc1cc(C(C(=O)N2C[C@H](O)C[C@H]2C(=O)NCc2ccc(-c3scnc3C)cc2)C(C)CCN2CCC(c3cnc(N4C5CCC4CN(c4cc(-c6ccccc6O)nnc4N)C5)nc3)CC2)on1 (single isomer, unassigned) [I-45] | > 90% | < 100 nM |  |
| Cc1ncsc1-c1ccc(CNC(=O)[C@@H]2C[C@@H](O)CN2C(=O)[C@@H](NC(=O)C2CC3(C2)CC(N2CCC(c4cnc(N5CCN(c6cc(-c7ccccc7O)nnc6N)CC5)nc4)CC2)C3)C(C)(C)C)cc1 (stereo partly drawn) [I-65, (2S,4R)-1-((S)-2-(6-(4-(2-(4-(3-amino-6-(2-hydroxyphenyl)pyridazin-4-yl)piperazin-1-yl)pyrimidin-5-yl)piperidin-1-yl)spiro[3.3]heptane-2-carboxamido)-3,3-dimethylbutanoyl)-4-hydroxy-N-(4-(4-methylthiazol-5-yl)benzyl)pyrrolidine-2-carboxamide] | 50 to 70% | < 100 nM |  |
| Cc1ncsc1-c1ccc(CNC(=O)[C@@H]2C[C@@H](O)CN2C(=O)[C@@H](NC(=O)CN2C3CCC2CN([C@H]2CC[C@@H](c4cnc(N5C6CCC5CN(c5cc(-c7ccccc7O)nnc5N)C6)nc4)CC2)C3)C(C)(C)C)cc1 [I-77, (2S,4R)-1-((2S)-2-(2-(3-((1s,4R)-4-(2-(3-(3-amino-6-(2-hydroxyphenyl)pyridazin-4-yl)-3,8-diazabicyclo[3.2.1]octan-8-yl)pyrimidin-5-yl)cyclohexyl)-3,8-diazabicyclo[3.2.1]octan-8-yl)acetamido)-3,3-dimethylbutanoyl)-4-hydroxy-N-(4-(4-methylthiazol-5-yl)benzyl)pyrrolidine-2-carboxamide] | 70 to 90% | < 100 nM |  |
| Cc1ncsc1-c1ccc(CNC(=O)[C@@H]2C[C@@H](O)CN2C(=O)[C@@H](NC(=O)C2(F)CC2)C(C)(C)C)c(OCCCCCCN2CCC(c3cnc(N4C5CCC4CN(c4cc(-c6ccccc6O)nnc4N)C5)nc3)CC2)c1 [I-75, (2S,4R)—N-(2-((6-(4-(2-(3-(3-amino-6-(2-hydroxyphenyl)pyridazin-4-yl)-3,8-diazabicyclo[3.2.1]octan-8-yl)pyrimidin-5-yl)piperidin-1-yl)hexyl)oxy)-4-(4-methylthiazol-5-yl)benzyl)-1-((S)-2-(1-fluorocyclopropanecarboxamido)-3,3-dimethylbutanoyl)-4-hydroxypyrrolidine-2-carboxamide] | 70 to 90% | < 100 nM |  |
| Cc1ncsc1-c1ccc(CNC(=O)[C@@H]2C[C@@H](O)CN2C(=O)[C@H](c2cc(N3CCC(CCN4CCC(c5cnc(N6C7CCC6CN(c6cc(-c8ccccc8O)nnc6N)C7)nc5)CC4)CC3)no2)C(C)C)cc1 [I-63, (2S,4R)-1-((2S)-2-(3-(4-(2-(4-(2-(3-(3-amino-6-(2-hydroxyphenyl)pyridazin-4-yl)-3,8-diazabicyclo[3.2.1]octan-8-yl)pyrimidin-5-yl)piperidin-1-yl)ethyl)piperidin-1-yl)isoxazol-5-yl)-3-methylbutanoyl)-4-hydroxy-N-(4-(4-methylthiazol-5-yl)benzyl)pyrrolidine-2-carboxamide] | > 90% | < 100 nM |  |
| Cc1ncsc1-c1ccc(CNC(=O)[C@@H]2C[C@@H](O)CN2C(=O)[C@@H](NC(=O)C2(F)CC2)C(C)(C)C)c(OC2CCC(N3CCC(c4cnc(N5C6CC[C@@H]5CN(c5cc(-c7ccccc7O)nnc5N)C6)nc4)CC3)CC2)c1 (stereo partly drawn) [I-71, (2S,4R)—N-(2-(((1r,4S)-4-(4-(2-(3-(3-amino-6-(2-hydroxyphenyl)pyridazin-4-yl)-3,8-diazabicyclo[3.2.1]octan-8-yl)pyrimidin-5-yl)piperidin-1-yl)cyclohexyl)oxy)-4-(4-methylthiazol-5-yl)benzyl)-1-((S)-2-(1-fluorocyclopropanecarboxamido)-3,3-dimethylbutanoyl)-4-hydroxypyrrolidine-2-carboxamide] |  | < 100 nM | B (B (>70-90% degradation)) |
| Cc1ncsc1-c1ccc(CNC(=O)[C@@H]2C[C@@H](O)CN2C(=O)[C@@H](c2cc(OCCCCN3CCC(c4cnc(N5C6CCC5CN(c5cc(-c7ccccc7O)nnc5N)C6)nc4)CC3)no2)C(C)C)cc1 [I-56] |  | < 100 nM | B (B (>70-90% degradation)) |
| Cc1ncsc1-c1ccc(CNC(=O)[C@@H]2C[C@@H](O)CN2C(=O)[C@H](c2cc(OCCCCN3CCC(c4cnc(N5C6CCC5CN(c5cc(-c7ccccc7O)nnc5N)C6)nc4)CC3)no2)C(C)C)cc1 [I-57] | > 90% | < 100 nM |  |
| Cc1ncsc1-c1ccc(CNC(=O)[C@@H]2C[C@@H](O)CN2C(=O)[C@@H](NC(=O)C2(F)CC2)C(C)(C)C)c(OCCCCN2CCC(c3cnc(N4C5CCC4CN(c4cc(-c6ccccc6O)nnc4N)C5)nc3)CC2)c1 [I-74] | 70 to 90% | < 100 nM |  |
